Experimental data taken from article PMC10052035, “Virtual Screening, Structural Analysis, and Formation Thermodynamics of Carbamazepine Cocrystals” (Pharmaceutics, 2023).
≈ marks a conversion by molar mass, not a printed value. Read-outs that look alike come from different tables or passages of the source.

What was measured:
[1] = cited from earlier work
[2] = cited from earlier work; remark: listed apart in the source
[3] = Solubility of cocrystals and their constituents in organic solvents (shake-flask, HPLC); conditions: for solubility at 48 h: organic solvent or mixture, thermodynamic from solid; for Cp∙10^2, solubility of pure component: 293.15 K, value is C∙10^2
Method: For the [CBZ + 3AcAmBA] (1:1) cocrystal, methanol was used. For [CBZ + 4AcAmBA] (1:1), all the experiments were performed in acetonitrile. An excess of the solid was placed in an Eppendorf tube, and 2 mL of solvent was added. The resulting suspension was shaken in a ThermoMixer C (Eppendorf, Hamburg, Germany) at 800 rpm for 48 h at the specified temperature. Subsequently, the saturated solution was separated using a 0.22 μm PTEF filter, diluted, and analyzed using HPLC. The solid phases after the experiment were collected and characterized by PXRD. Each experiment was repeated three times.
The HPLC was performed on an LC-20 AD Shimadzu Prominence model (Shimadzu, Kyoto, Japan) equipped with a PDA detector and a Luna C-18 column (150 mm × 4.6 mm i.d., 5 μm particle size, and 100 Å pore size). The column temperature was set to 40 °C. To achieve the proper separation of the cocrystal components, different ratios of the mobile phase, consisting of acetonitrile and a 0.1% aqueous solution of trifluoroacetic acid (35:65 v/v), were used. The flow rate was 1.0 mL·min^−1, and the injection volume was 20 μL. The UV detection of carbamazepine, 2-acetamidobenzoic acid, 3-acetamidobenzoic acid, and 4-acetamidobenzoic acid was carried out at the wavelengths of 285 nm, 249 nm, 220 nm, and 266 nm, respectively.

[4] = type: physicochemical; conditions: acidic conditions (pH 2.0), 310.2 K
Method: The saturation shake-flask method was used to measure the aqueous solubility of the CBZ cocrystals in a pH 2.0 buffer solution at the eutectic point, where drug and cocrystal are in equilibrium with the solution. The eutectic point between the cocrystal and the drug was reached by suspending 80 mg of the cocrystal and 30 mg of CBZ in 2 mL of the buffer solution. The obtained suspension was stirred continuously for 72 h at 37.0 ± 0.1 °C. After equilibration, the final pH of the solution was measured. The suspension was diluted with the mobile phase after being filtered through a […] PTEF filter. Concentrations of compounds were analyzed by HPLC. The solid phases after the experiment were characterized by PXRD.
The column temperature was set to 40 °C.

## NC(=O)c1cnccn1.Nc1ccc(C(=O)O)cc1
[1]; 298 K, ref [14]
  TΔformS: -8.01 ± 0.765 kcal/mol
  ΔformG: -1.46 ± 0.072 kcal/mol
  ΔformH: -9.46 ± 0.693 kcal/mol

## NC(=O)c1ccccc1N.O=C1CN(N=Cc2ccc([N+](=O)[O-])o2)C(=O)N1
[1]; 298 K, ref [19]
  TΔformS: 0.311 ± 0.263 kcal/mol
  ΔformG: -1.08 ± 0.12 kcal/mol
  ΔformH: -0.789 ± 0.19 kcal/mol
[1]; 298 K, ref [19], listed as 13
  TΔformS: ≈ 0 kJ·mol-1

## NC(=O)N1c2ccccc2C=Cc2ccccc21 [CBZ, carbamazepine]
[2]; 2-propanol, ref [6]
  log(S0), intrinsic solubility: -1.36 mol⋅L-1
[2]; 2-propanol, ref [10]
  log(S0), intrinsic solubility: -1.3 mol⋅L-1
[2]; Acetone, ref [6]
  log(S0), intrinsic solubility: -1.27 mol⋅L-1
[2]; Ethanol, ref [6]
  log(S0), intrinsic solubility: -0.97 mol⋅L-1
[2]; Ethanol, ref [10]
  log(S0), intrinsic solubility: -0.85 mol⋅L-1
[2]; Ethyl acetate, ref [6]
  log(S0), intrinsic solubility: -1.32 mol⋅L-1
[2]; Ethyl acetate, ref [10]
  log(S0), intrinsic solubility: -1.31 mol⋅L-1
[2]; Methanol, ref [6]
  log(S0), intrinsic solubility: -0.49 mol⋅L-1
[3]; acetonitrile, 20 °C
  solubility at 48 h: 142 ± 3 mM (≈ 33.6 mg/mL)
[3]; acetonitrile, 25 °C
  solubility at 48 h: 162 ± 4 mM (≈ 38.3 mg/mL)
[3]; acetonitrile, 30 °C
  solubility at 48 h: 191 ± 4 mM (≈ 45.1 mg/mL)
[3]; acetonitrile, 35 °C
  solubility at 48 h: 222 ± 3 mM (≈ 52.5 mg/mL)
[3]; acetonitrile, 40 °C
  solubility at 48 h: 250 ± 4 mM (≈ 59.1 mg/mL)
[3]; acetonitrile
  Cp∙10^2, solubility of pure component: 14.2±0.3 mol/l
[3]; methanol, 20 °C
  solubility at 48 h: 220 ± 2 mM (≈ 52 mg/mL)
[3]; methanol, 25 °C
  solubility at 48 h: 248 ± 2 mM (≈ 58.6 mg/mL)
[3]; methanol, 30 °C
  solubility at 48 h: 285 ± 2 mM (≈ 67.3 mg/mL)
[3]; methanol, 35 °C
  solubility at 48 h: 323 ± 3 mM (≈ 76.3 mg/mL)
[3]; methanol, 40 °C
  solubility at 48 h: 356 ± 1 mM (≈ 84.1 mg/mL)
[3]; methanol
  Cp∙10^2, solubility of pure component: 22.0±0.2 mol/l

## Cc1cc(O)c2c(c1)C(=O)c1cc(O)cc(O)c1C2=O [Emodin]
[2]; 2-propanol, ref [6]
  log(S0), intrinsic solubility: -1.68 mol⋅L-1
[2]; Acetone, ref [6]
  log(S0), intrinsic solubility: -1.29 mol⋅L-1
[2]; Ethanol, ref [6]
  log(S0), intrinsic solubility: -1.74 mol⋅L-1
[2]; Ethyl acetate, ref [6]
  log(S0), intrinsic solubility: -1.43 mol⋅L-1

## O=C(O)CCCC(=O)O [Glutaric acid]
[2]; 2-propanol, ref [10]
  log(S0), intrinsic solubility: 0.56 mol⋅L-1
[2]; Ethanol, ref [10]
  log(S0), intrinsic solubility: 0.45 mol⋅L-1
[2]; Ethyl acetate, ref [10]
  log(S0), intrinsic solubility: 0 mol⋅L-1

## NC(=O)c1cccnc1 [Nicotinamide]
[2]; 2-propanol, ref [10]
  log(S0), intrinsic solubility: -0.2 mol⋅L-1
[2]; Ethanol, ref [10]
  log(S0), intrinsic solubility: 0.04 mol⋅L-1
[2]; Ethyl acetate, ref [10]
  log(S0), intrinsic solubility: -0.96 mol⋅L-1

## COc1ccc(C(C)=O)c(O)c1 [Paeonol]
[2]; 2-propanol, ref [6]
  log(S0), intrinsic solubility: -0.12 mol⋅L-1
[2]; Ethanol, ref [6]
  log(S0), intrinsic solubility: 0.08 mol⋅L-1
[2]; Methanol, ref [6]
  log(S0), intrinsic solubility: 0.22 mol⋅L-1

## CC(O)(CS(=O)(=O)c1ccc(F)cc1)C(=O)Nc1ccc(C#N)c(C(F)(F)F)c1.NC(=O)c1ccccc1 (centres unmarked) [[Bicalutamide + Benzamide] (1:1)]
[1]; 298 K, ref [11]
  TΔformS: -3.87 ± 0.263 kcal/mol
  ΔformG: -0.813 ± 0.072 kcal/mol
  ΔformH: -4.68 ± 0.19 kcal/mol

## CC(O)(CS(=O)(=O)c1ccc(F)cc1)C(=O)Nc1ccc(C#N)c(C(F)(F)F)c1.NC(=O)c1ccccc1O (centres unmarked) [[Bicalutamide + Salicylamide] (1:1)]
[1]; 298 K, ref [11]
  TΔformS: -2.2 ± 0.19 kcal/mol
  ΔformG: -0.526 ± 0.072 kcal/mol
  ΔformH: -2.72 ± 0.12 kcal/mol

## NC(=O)N1c2ccccc2C=Cc2ccccc21.NC(=O)c1ccc(O)cc1 [[CBZ + 4-Hydroxybenzamide] (1:1)]
[1]; 298 K, ref [22]
  TΔformS: -1.36 ± 0.12 kcal/mol
  ΔformG: -1.6 ± 0.12 kcal/mol
  ΔformH: -2.96 ± 0.22 kcal/mol

## NC(=O)N1c2ccccc2C=Cc2ccccc21.NC(=O)c1ccccc1 [[CBZ + Benzamide] (1:1)]
[1]; 298 K, ref [22]
  TΔformS: 7.29 ± 0.693 kcal/mol
  ΔformG: -1.15 ± 0.072 kcal/mol
  ΔformH: 6.14 ± 0.454 kcal/mol

## NC(=O)N1c2ccccc2C=Cc2ccccc21.O=C1NS(=O)(=O)c2ccccc21 [[CBZ + Saccharin] (1:1)]
[1]; 306 K, ref [15]
  TΔformS: -0.311 kcal/mol
  ΔformG: -1.1 kcal/mol
  ΔformH: -1.41 ± 0.22 kcal/mol

## NC(=O)N1c2ccccc2C=Cc2ccccc21.NC(=O)c1ccncc1 [[CBZ + isonicotinamide] (1:1)]
[1]; 298 K, ref [22]
  TΔformS: 5.26 ± 0.598 kcal/mol
  ΔformG: -0.502 ± 0.024 kcal/mol
  ΔformH: 4.76 ± 0.454 kcal/mol

## Cc1ccc(-c2cc(C(F)(F)F)nn2-c2ccc(S(N)(=O)=O)cc2)cc1.NC(=O)c1cccnc1 [[Celecoxib + Nicotinamide] (1:1)]
[1]; 298 K, ref [20]
  TΔformS: 1.65 ± 0.478 kcal/mol
  ΔformG: -0.0837 ± 0.012 kcal/mol
  ΔformH: 1.55 ± 0.359 kcal/mol

## NCC(=O)O.NCC(=O)O.O=C(O)/C=C/C(=O)O [[Glycine + Fu maric acid] (2:1)]
[1]; 298 K, ref [17]
  TΔformS: -0.335 ± 0.14 kcal/mol
  ΔformG: -1.05 ± 0.072 kcal/mol
  ΔformH: -1.39 ± 0.12 kcal/mol

## NCC(=O)O.O=C(O)/C=C\C(=O)O [[Glycine + Maleic acid] (1:1)]
[1]; 298 K, ref [17]
  TΔformS: -1.36 ± 0.239 kcal/mol
  ΔformG: -1.29 ± 0.096 kcal/mol
  ΔformH: -2.65 ± 0.22 kcal/mol

## NC(=O)c1ccncc1.O=C1CN(N=Cc2ccc([N+](=O)[O-])o2)C(=O)N1 [[Nitrofurantoin + Isonicotinamide] (1:1)]
[1]; 298 K, ref [19]
  TΔformS: 1.43 ± 0.17 kcal/mol
  ΔformG: -1.12 ± 0.096 kcal/mol
  ΔformH: 0.311 ± 0.14 kcal/mol

## NC(=O)c1ccccn1.O=C1CN(N=Cc2ccc([N+](=O)[O-])o2)C(=O)N1 [[Nitrofurantoin + Picolinamide] (1:1)]
[1]; 298 K, ref [19]
  TΔformS: 0.14 ± 0.19 kcal/mol
  ΔformG: -1.17 ± 0.12 kcal/mol
  ΔformH: -1.05 ± 0.17 kcal/mol
[1]; 298 K, ref [19], listed as 12
  TΔformS: ≈ 0 kJ·mol-1

## NC(=O)c1ccccc1O.O=C1CN(N=Cc2ccc([N+](=O)[O-])o2)C(=O)N1 [[Nitrofurantoin + Salicylamide] (1:1)]
[1]; 298 K, ref [19]
  TΔformS: 0.072 ± 0.17 kcal/mol
  ΔformG: -0.14 ± 0.096 kcal/mol
  ΔformH: -0.072 ± 0.14 kcal/mol
[1]; 298 K, ref [19], listed as 14
  TΔformS: ≈ 0 kJ·mol-1

## O=C(NN=Cc1ccccc1O)c1ccncc1.O=C1NS(=O)(=O)c2ccccc21 [[Salinazid + Saccharin] (1:1)]
[1]; 298 K, ref [13]
  TΔformS: -2.65 ± 0.382 kcal/mol
  ΔformG: -1.74 ± 0.14 kcal/mol
  ΔformH: -4.4 ± 0.239 kcal/mol

## CNC(=O)c1cc(Oc2ccc(NC(=O)Nc3ccc(Cl)c(C(F)(F)F)c3)cc2)ccn1.O=c1[nH]cc(F)c(=O)[nH]1 [[Sorafenib + 5-fluorouracil] (1:1)]
[1]; 303 K, ref [18]
  TΔformS: 0.0048 ± 0.024 kcal/mol
  ΔformG: -1.14 ± 0.022 kcal/mol
  ΔformH: -1.14 ± 0.017 kcal/mol
[1]; 303 K, ref [18], listed as 11
  TΔformS: ≈ 0 kJ·mol-1

## Cc1cc(C)nc(NS(=O)(=O)c2ccc(N)cc2)n1.O=C(O)c1ccccc1O [[Sulfamethazine + salicylic acid] (1:1)]
[1]; 293 K, ref [21]
  TΔformS: 7.1 kcal/mol
  ΔformG: -1.7 kcal/mol
  ΔformH: 5.52 kcal/mol

## COc1cc(C=NNC(=O)c2ccncc2)ccc1O.O=C1NS(=O)(=O)c2ccccc21 [[Vanillin isoniazid + Saccharin] (1:1)]
[1]; 298 K, ref [13]
  TΔformS: -1.05 ± 0.454 kcal/mol
  ΔformG: -2.17 ± 0.19 kcal/mol
  ΔformH: -3.23 ± 0.263 kcal/mol

## CC(O)Cc1nsc(Nc2cccc(Cl)c2)n1.COc1cc(C(=O)O)ccc1O (centres unmarked) [[XIa+Vanillic acid] (1:1)]
[1]; 298 K, ref [12]
  TΔformS: -1.24 ± 0.311 kcal/mol
  ΔformG: -1.27 ± 0.096 kcal/mol
  ΔformH: -2.51 ± 0.22 kcal/mol

## NC(=O)N1c2ccccc2C=Cc2ccccc21.O [carbamazepine hydrate, reference compound]
[4]
  solubility: (8.30 ± 0.02)·10^−4 mol·l^−1
